# According to patent publication EP0366632A1, “Alternative energy substrates” (priority 1988, dated 1990):
# Several values for one entry are separate records, joined by “and”; a condition that tells them apart may be missing. Identical values can stand only once. Entries after “also recorded” stand apart in the source; their conditions may differ.
# Experiments:
# [1] = test system: Staphylococcus aureus ATCC 6535; experiment: Microorganism count in 2% and 0.2% ester emulsions (Example 13); format: cell-based
# Description: Both of the emulsions included egg-yolk phospholipide 1,2% and sterile water, in addition to ester. The emulsions were prepared aseptically, by emulsifying sterile-filtered ester with a sterilized dispersion of egg-yolk phospholipids.
# Aliquots of these emulsions were diluted with phosphate buffer (0.01 M, pH=7.0), in the proportions of 1 and 100 in respective emulsions. Staphylococcus aureus ATCC 6535 was then added to the emulsions. The samples were then incubated at +37°C for 20 hours. The microorganism count was carried out after 1-5 minutes, 2 and 20 hours, in the manner described in microbiological literature. Parallel with the above experiments, a check was made on the phospholipid solution 1,2% and TSB (Tryptone soya broth), by adding Staphylococcus aureus ATCC 6535. The latter substrate was tested to ascertain whether the controlled microorganisms were viable. […] The starting concentration was about 5x10³. […] After 2 hours, the number of microorganisms was 0 and 10 respectively, and after 20 hours 0 and 0 respectively. In the samples containing 5-methyl-3-oxo-hexanoic acid ethyl ester with concentrations of 2% and 0.2%, the number of microorganisms per ml present after 1-5 minutes was 10⁴, after 2 hours 0 and 100 respectively, and after 20 hours 0 and 0 respec tively.
# [2] = Cold storage of fat emulsion (Intralipid) with ester admixture: visual inspection, pH, mean particle size; format: physicochemical; settings: for emulsion quality (oil droplets, creaming, oil separation), daily inspection: Example 5: mother concentrate in Intralipid 10%; for emulsion quality (oil droplets, creaming, oil separation), daily inspection / emulsion stability, daily visual inspection: +5°C; for emulsion quality (oil droplets, creaming, oil separation), daily inspection / emulsion quality, daily visual inspection / emulsion stability, daily visual inspection: 5 days; for emulsion quality, daily visual inspection: 5°C
# Description: A so-called mother concentrate was prepared by dissolving 6 g of egg-yolk phospholipids in 40 g of 4-methyl-3-oxo-pentanoic acid ethyl ester at +60°C, while stirring. 34 g of 99% ethyl alcohol were then added to the solution, whereafter the solution was cooled to room temperature and dispensed into 20 ml glass flasks. Nitrogen gas was then bubbled through the liquid and the flasks then stoppered and capsuled. The bottles were then autoclaved at +120°C and at 118 kPa for 20 minutes. A 10% fat emulsion for parenteral nutrient administration (Intralipid^R retailed by KabiVitrum AB, Stockholm) was added to the preparation under strict asceptic conditions, to a 4-methyl-3-oxo-pentanoic acid ethyl ester concentration of 0.2, 1 and 3% respectively. The emulsion was shaken for 5 minutes in a shaking machine and then placed in a cold environment (+5°C). The emulsion was thereafter observed over a 5 day period, wherewith a daily inspection was carried out to assess the formation of oil droplets, creaming or oil separation. The assessment was made in comparison with a known emulsion for parenteral use (Intralipid^R 10%). […] Subsequent to 5 days storage, an analysis was made of the pH and mean particle size in a Coulter nanosizer. The following values were obtained:
# (§1) A so-called mother concentrate produced by dissolving 6 g egg-yolk phospholipids in 40 g of 4-methyl-3-oxo-pentanoic acid-ethyl ester at +60°C, while stirring the system. 34 g of 99% ethyl alcohol were then added to the solution, whereafter the solution was cooled to room temperature and dispensed into 20 ml glass flasks. Nitrogen gas was perculated through the contents of the flasks, and the flasks subsequently stoppered and fitted with capsules. The flasks were then autoclaved at 120°C and 118 kPa over a period of 20 minutes. This preparation was added to a 20% fat emulsion (Intralipid^R) under strict aseptic conditions, such that the concentation of 4-methyl-3-oxo-pentanoic acid ethyl ester was 0.2 and 1 and 3% respectively. The emulsion was shaken for 5 minutes in a shaker and then placed in a cold environment (5°C). The emulsion was inspected over a period of 5 calender days, wherewith a visual inspection was carried out daily in order to ascertain the occurrence of any oil droplets that may form, creaming or oil separation. The assay was effected by comparison with a known emulsion for parenteral use (Intralipid^R 20%). […] The pH of the emulsion was measured after a 5 day storage period. The mean particle size was measured in a Coulter^R nanosizer. The following values were obtained:
# as §1, with “prepara tion” for “preparation”, “10%” for “20%”, “10%).” for “20%).”, “obtained: […]” for “obtained:”
# Energy density = format: physicochemical
# [3] = Cold storage of fat emulsion (Intralipid) with ester admixture: visual inspection, pH, mean particle size; format: physicochemical; settings: for emulsion stability, daily visual inspection: Example 34: pure ester in 20 percent fat emulsion
# [4] = Total parenteral nutrition (TPN) with ester as energy substitute in rats; settings: 9 days
# Description: Sprague-Dawley male rats weighing 180-190 g were sur­gically fitted with a central vein catheter protected by a saddle (Roos et al, 1981). Total parenteral nutrition (TPN) was administered in accordance with the following standard formula: Fat: 8 g/kg body weight and 24 hours Nitrogen: 1,2 g/kg body weight and 24 hours Total energy supplied: 1257 kJ/kg body weight and 24 hours Liquid: 300 ml/kg body weight and 24 hours The glucose to fat ratio was 70-30 energy percent. The energy percentage obtained from the energy substitutes during the test period corresponded to about 5% NPC. The TPN-mixture was obtained by mixing Vamin^R 14 (a solution of essential and non-essential amino acids for paren­teral nutrient administration, retailed by KabiVitrum AB) with no electrolytes, glucose solution 50% and Intralipid^R 20% in suitable proportions and adding adequate quantities of electrolytes, trace minerals and vitamins. Subsequent to infusing the rats continuously for one week (20 hours/day), the animals were divided randomly into three groups, with 6 animals in each group. The animals of one group were administered with the same TPN-formula as that previously mentioned (the reference group). […] The compounds were given in a dosage of 2 g/kg body weight and 24 hours in a yield corres­ponding to equivalent glucose energy quantities. In other respects, the TPN-program or formula was the same as that for the reference group. The experiment was then continued for a further 9 days, during which the weights of the animals were recorded daily and urine collected and frozen. At the end of the test period, the rats were killed by heart puncture while under a pentobarbital anesthetic and an autopsy was performed on the rat carcasses with microscopic examination. The body organs were sent to a laboratory for pathological assay.
# [5] = Example 5: Intralipid 10%, 0.2% admix, after 5 days storage
# [6] = Example 5: Intralipid 10%, 1% admix, after 5 days storage
# [7] = Example 5: Intralipid 10%, 3% admix, after 5 days storage
# [8] = Example 30: Intralipid 20%, 0.2% admix
# [9] = Example 30: Intralipid 20%, 1% admix
# [10] = Example 30: Intralipid 20%, 3% admix
# [11] = Example 31: Intralipid 10%, 0.2% admix
# [12] = Example 31: Intralipid 10%, 1% admix
# [13] = Example 31: Intralipid 10%, 3% admix
# [14] = Example 31: Intralipid 10%, 5% admix
smiles,measurement,setting,value
CCOC(=O)CC(=O)C(C)C [4-methyl-3-oxo-pentanoic acid ethyl ester],number of microorganisms,"[1]; 0.2%, after 2 hours",10 per ml
same,number of microorganisms,"[1]; 0.2%, after 20 hours",0 per ml
same,number of microorganisms,"[1]; 2%, after 1-5 minutes, +37°C, starting concentration about 5x10³",100 per ml
same,number of microorganisms,"[1]; 2%, after 2 hours",0 per ml
same,number of microorganisms,"[1]; 2%, after 20 hours",0 per ml
same,"Mean particle size (single readings, Coulter nanosizer)",[2]; [5],258 and 264 and 267 and 250
same,"Mean particle size, X",[2]; [5],261
same,pH,[2]; [5],7.2
same,"Mean particle size (single readings, Coulter nanosizer)",[2]; [6],245 and 253 and 250 and 235 and 242
same,"Mean particle size, X",[2]; [6],246
same,pH,[2]; [6],7.0
same,"Mean particle size (single readings, Coulter nanosizer)",[2]; [7],264 and 258 and 248 and 250
same,"Mean particle size, X",[2]; [7],258
same,pH,[2]; [7],6.8
same,"emulsion quality (oil droplets, creaming, oil separation), daily inspection",[2]; 1% addition,had no affect on the quality
same,"emulsion quality (oil droplets, creaming, oil separation), daily inspection",[2]; 3% addition,"fully acceptable, but deteriorated slowly during day 4 and 5"
same,"Mean particle size (single readings, Coulter nanosizer)",[2]; [8],325 and 316 and 320 and 327
same,"Mean particle size, X",[2]; [8],323
same,pH,"[2]; Example 30: Intralipid 20%, 0.2% admix, after 5 day storage",7.3
same,"Mean particle size (single readings, Coulter nanosizer)",[2]; [9],323 and 327 and 329 and 319 and 336
same,"Mean particle size, X",[2]; [9],326
same,pH,"[2]; Example 30: Intralipid 20%, 1% admix, after 5 day storage",6.9
same,"Mean particle size (single readings, Coulter nanosizer)",[2]; [10],322 and 319 and 320 and 333
same,"Mean particle size, X",[2]; [10],323
same,pH,"[2]; Example 30: Intralipid 20%, 3% admix, after 5 day storage",6.5
same,"emulsion quality, daily visual inspection","[2]; Example 30: mother concentrate in Intralipid 20%, 0.2% addition",No change in quality
same,"emulsion quality, daily visual inspection","[2]; Example 30: mother concentrate in Intralipid 20%, 1% addition",No change in quality
same,"emulsion quality, daily visual inspection","[2]; Example 30: mother concentrate in Intralipid 20%, 3-percent mixture",fully acceptable over the first 3 days
same,"Mean particle size (single readings, Coulter nanosizer)",[2]; [11],241 and 239 and 246
same,"Mean particle size, X",[2]; [11],241
same,pH,"[2]; Example 31: Intralipid 10%, 0.2% admix, after 5 day storage",7.3
same,"Mean particle size (single readings, Coulter nanosizer)",[2]; [12],244 and 249 and 246 and 251
same,"Mean particle size, X",[2]; [12],247
same,pH,"[2]; Example 31: Intralipid 10%, 1% admix, after 5 day storage",6.9
same,"Mean particle size (single readings, Coulter nanosizer)",[2]; [13],249 and 246 and 240 and 236 and 243
same,"Mean particle size, X",[2]; [13],243
same,pH,"[2]; Example 31: Intralipid 10%, 3% admix, after 5 day storage",6.7
same,"Mean particle size (single readings, Coulter nanosizer)",[2]; [14],244 and 252 and 254
same,"Mean particle size, X",[2]; [14],251
same,pH,"[2]; Example 31: Intralipid 10%, 5% admix, after 5 day storage",6.7
same,"emulsion quality, daily visual inspection","[2]; Example 31: mother concentrate in Intralipid 10%, 0.2% addition",No change in quality
same,"emulsion quality, daily visual inspection","[2]; Example 31: mother concentrate in Intralipid 10%, 1% addition",No change in quality
same,"emulsion quality, daily visual inspection","[2]; Example 31: mother concentrate in Intralipid 10%, 3% addition",No change in quality; also recorded: fully acceptable over the first 3 days
same,pH,"[2]; Example 34: 20 percent fat emulsion, 5% emulsion, end of 5-day period (reference emulsion pH=7.9)",5.0
same,"emulsion stability, daily visual inspection","[2]; Example 34: pure ester in 10% fat emulsion (Intralipid), 0.2%",stable over the whole of the test period
same,"emulsion stability, daily visual inspection","[2]; Example 34: pure ester in 10% fat emulsion, 1%",stable over the whole of the test period
same,"emulsion stability, daily visual inspection","[2]; Example 34: pure ester in 10% fat emulsion, 3%",stable over the whole of the test period
same,"emulsion stability, daily visual inspection","[2]; Example 34: pure ester in 10% fat emulsion, 5%",stable over the whole of the test period; also recorded: stable over the first 2 days
same,"emulsion stability, daily visual inspection","[2]; Example 34: pure ester in 20 percent fat emulsion, 1% admixture",remained stable over the whole of the test period
same,"emulsion stability, daily visual inspection","[2]; Example 34: pure ester in 20 percent fat emulsion, 5% admixture",remained stable for 2 days
same,energy density,Energy density,27.94 kJ/g
same,"emulsion quality (oil droplets, creaming, oil separation), daily inspection","[3]; Example 5: mother concentrate in Intralipid 10%, 0.3% addition, +5°C, 5 days",had no affect on the quality
same,pH,"[3]; Example 34: 20 percent fat emulsion, 3% emulsion, end of 5-day period (reference emulsion pH=7.9)",5.6
same,"emulsion stability, daily visual inspection","[3]; 0.1% admixture, +5°C, 5 days",remained stable over the whole of the test period
same,"emulsion stability, daily visual inspection","[3]; 3% admixture, +5°C, 5 days",remained stable for four days
same,toxicity at the dosages tested,[4]; 2 g/kg body weight and 24 hours,non-toxic
same,average growth per day during the whole of the test period,[4]; ester 2 g/kg body weight and 24 hours in place of equivalent glucose energy,3.7 ± 0.8 g
